Patent US20040266732A1, “Therapeutic agents, methods, and treatments” (priority 2002, published 2004)

Key:
Assay in all cases: NCI 60 cell-line test
Assay type in all cases: cell-based, human
786-0 = 786-0 (Renal Cancer)
Protocol: (§1) Methodology: The NCI conducted a test of the MT103 drug against 60 human cell lines, with a minimum of five concentrations of MT103 at 10-fold dilutions. A 48 hour continuous drug exposure was used, and a sulforhodamine B (SRB) protein assay was used to estimate cell viability and growth. The human tumor cell lines of the cancer screening panel were grown in RPMI 1640 medium containing 5% fetal bovine serum and 2 mM L-glutamine. Cells were inoculated into 96 well microtiter plates in 100 μL at plating densities ranging from 5,000 to 40,000 cells/well depending on the doubling time of individual cell lines. After cell inoculation, the microtiter plates are incubated at 37° C., 5% CO2, 95% air, and 100% relative humidity for 24 h prior to addition of experimental drugs.
(§2) After 24 h, two plates of each cell line were fixed in situ with TCA, to represent a measurement of the cell population for each cell line at the time of drug addition (Tz). MT103 was solubilized in dimethyl sulfoxide at 400-fold the desired final maximum test concentration and stored frozen prior to use. At the time of drug addition, an aliquot of frozen concentrate was thawed and diluted to twice the desired final maximum test concentration with complete medium containing 50 μg/ml gentamicin. Additional four, 10-fold or ½ log serial dilutions were made to provide a total of five drug concentrations plus control. Aliquots of 100 μl of these different drug dilutions were added to the appropriate microtiter wells already containing 100 μl of medium, resulting in the required final drug concentrations.
(§3) Following drug addition, the plates were incubated for an additional 48 h at 37° C., 5% CO2, 95% air, and 100% relative humidity. For adherent cells, the assay was terminated by the addition of cold TCA. Cells were fixed in situ by the gentle addition of 50 μl of cold 50% (w/v) TCA (final concentration, 10% TCA) and incubated for 60 minutes at 4° C. The supernatant was discarded, and the plates were washed five times with tap water and air dried. Sulforhodamine B (SRB) solution (100 μl) at 0.4% (w/v) in 1% acetic acid was added to each well, and plates were incubated for 10 minutes at room temperature. After staining, unbound dye was removed by washing five times with 1% acetic acid and the plates were air-dried. Bound stain was subsequently solubilized with 10 mM trizma base, and the absorbance was read on an automated plate reader at a wavelength of 515 nm. For suspension cells, the methodology was the same except that the assay was terminated by fixing settled cells at the bottom of the wells by gently adding 50 μl of 80% TCA (final concentration, 16% TCA). Using the seven absorbance measurements (time zero, (Tz), control growth, (C), and test growth in the presence of drug at the five concentration levels (Ti)), the percentage growth was calculated at each of the drug concentrations levels. Percentage growth inhibition was calculated as:
(§4) [(Ti-Tz)/(C-Tz)]×100 for concentrations for which Ti>/=Tz
(§5) [(Ti-Tz)/Tz]×100 for concentrations for which Ti<Tz.
(§6) Three dose response parameters were calculated for each experimental agent. Growth inhibition of 50% (GI50) was calculated from [(Ti-Tz)/(C-Tz)]×100=50, which is the drug concentration resulting in a 50% reduction in the net protein increase (as measured by SRB staining) in control cells during the drug incubation. The drug concentration resulting in total growth inhibition (TGI) was calculated from Ti=Tz. The LC50 (concentration of drug resulting in a 50% reduction in the measured protein at the end of the drug treatment as compared to that at the beginning) indicating a net loss of cells following treatment was calculated from [(Ti-Tz)/Tz]×100=−50. Values were calculated for each of these three parameters if the level of activity is reached; however, if the effect was not reached or was exceeded, the value for that parameter was expressed as greater or less than the maximum or minimum concentration tested.

ACHN = ACHN (Renal Cancer)
Protocol: as §1, §2, §3, §4, §5, §6

CCRF-CEM = CCRF-CEM (Leukemia)
Protocol: as §1, §2, §3, §4, §5, §6

DU-145 = DU-145 (Prostate Cancer)
Protocol: as §1, §2, §3, §4, §5, §6

HL-60 (TB) = HL-60 (TB) (Leukemia)
Protocol: as §1, §2, §3, §4, §5, §6

K-562 = K-562 (Leukemia)
Protocol: as §1, §2, §3, §4, §5, §6

MDA-MB-231/ATCC = MDA-MB-231/ATCC (Breast Cancer)
Protocol: as §1, §2, §3, §4, §5, §6

MDA-N = MDA-N (Breast Cancer)
Protocol: as §1, §2, §3, §4, §5, §6

NCI-H460 = NCI-H460 (Non-Small Cell Lung Cancer)
Protocol: as §1, §2, §3, §4, §5, §6

OVCAR-3 = OVCAR-3 (Ovarian Cancer)
Protocol: as §1, §2, §3, §4, §5, §6

PC-3 = PC-3 (Prostate Cancer)
Protocol: as §1, §2, §3, §4, §5, §6

SK-MEL-5 = SK-MEL-5 (Melanoma)
Protocol: as §1, §2, §3, §4, §5, §6

SNB-19 = SNB-19 (CNS Cancer)
Protocol: as §1, §2, §3, §4, §5, §6

TK-10 = TK-10 (Renal Cancer)
Protocol: as §1, §2, §3, §4, §5, §6

UO-31 = UO-31 (Renal Cancer)
Protocol: as §1, §2, §3, §4, §5, §6

[1] = read-out: LC50 (the source's name)

`CC1(C)C2CC[C@@]1(CS(=O)(=O)N(C1CCCCC1)C1CCCCC1)C(O)C2` (stereo partly drawn) [MT103] gave a TGI (786-0) greater than 1.00E−04, an IC50 (786-0; read-out: G150) of 46.3 µM and a CC50 (786-0; [1]) greater than 100 µM. For the same compound, the TGI (ACHN) was greater than 1.00E−04, the IC50 (ACHN; read-out: G150) was 23.8 µM and the CC50 (ACHN; [1]) was greater than 100 µM. It also gave a TGI (CCRF-CEM) greater than 1.00E−04, an IC50 (CCRF-CEM; read-out: G150) of 29.7 µM and a CC50 (CCRF-CEM; [1]) greater than 100 µM. It also gave a TGI (DU-145) greater than 1.00E−04, an IC50 (DU-145; read-out: G150) of 30.5 µM and a CC50 (DU-145; [1]) greater than 100 µM. It also gave a TGI (HL-60 (TB)) of 8.33E−05, an IC50 (HL-60 (TB); read-out: G150) of 19 µM and a CC50 (HL-60 (TB); [1]) greater than 100 µM. For the same compound, the TGI (K-562) was greater than 1.00E−04, the IC50 (K-562; read-out: G150) was 26.8 µM and the CC50 (K-562; [1]) was greater than 100 µM. For the same compound, the TGI (MDA-MB-231/ATCC) was 4.71E−05, the IC50 (MDA-MB-231/ATCC; read-out: G150) was 16.9 µM and the CC50 (MDA-MB-231/ATCC; [1]) was greater than 100 µM. The TGI (MDA-N) was greater than 1.00E−04, the IC50 (MDA-N; read-out: G150) was 27.1 µM and the CC50 (MDA-N; [1]) was greater than 100 µM. It also gave a TGI (NCI-H460) greater than 1.00E−04, an IC50 (NCI-H460; read-out: G150) of 30.9 µM and a CC50 (NCI-H460; [1]) greater than 100 µM. It also gave a TGI (OVCAR-3) of 6.30E−05, an IC50 (OVCAR-3; read-out: G150) of 23 µM and a CC50 (OVCAR-3; [1]) greater than 100 µM. It also gave a TGI (PC-3) greater than 1.00E−04, an IC50 (PC-3; read-out: G150) of 27.8 µM and a CC50 (PC-3; [1]) greater than 100 µM. It also gave a TGI (SK-MEL-5) of 3.61E−05, an IC50 (SK-MEL-5; read-out: G150) of 16.8 µM and a CC50 (SK-MEL-5; [1]) of 77.7 µM. The TGI (SNB-19) was greater than 1.00E−04, the IC50 (SNB-19; read-out: G150) was 68 µM and the CC50 (SNB-19; [1]) was greater than 100 µM. The TGI (TK-10) was 9.02E−05, the IC50 (TK-10; read-out: G150) was 21.6 µM and the CC50 (TK-10; [1]) was greater than 100 µM. It also gave a TGI (UO-31) of 8.94E−05, an IC50 (UO-31; read-out: G150) of 28 µM and a CC50 (UO-31; [1]) greater than 100 µM.
